By pIC50 is commonly meant the negative decadic logarithm of the IC50, by convention in mol/L.

pIC50: −log10 of the molar value. “And” between values parts separate entries of the source, which are not always exact repeats. Identical values can stand only once.

Sequence of 15-PGDH/HPGD (P15428 whole entry): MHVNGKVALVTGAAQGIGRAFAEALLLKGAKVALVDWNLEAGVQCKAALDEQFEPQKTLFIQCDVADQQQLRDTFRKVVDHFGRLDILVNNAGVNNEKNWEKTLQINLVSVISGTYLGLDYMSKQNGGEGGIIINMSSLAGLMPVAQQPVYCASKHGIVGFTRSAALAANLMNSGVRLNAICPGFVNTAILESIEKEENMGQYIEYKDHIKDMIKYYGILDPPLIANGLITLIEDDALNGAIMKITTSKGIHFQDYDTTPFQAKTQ

For the test, the target named is 15-PGDH/HPGD (Homo sapiens (Human), UniProt P15428). The test is described as follows: hPGDH inhibitor screening biochemical assay. To be noted: read-out: hPGDH: Average IC50. Here is the method:
A hydroxyprostaglandin dehydrogenase inhibition screening biochemical assay can be performed to assess the synthesized inhibitors provided herein. Provided herein is an exemplary biochemical assay for hPGDH inhibitor screening.
The in vitro biochemical assay can be performed in white, 384 plates in total 20 μl reaction volume consisting of 10 nM of 15-PGDH/HPGD (R&D System #5660-DH), 15 μM Prostaglandin E2 (Sigma, Cat #P5640-10MG) and 0.25 mM (3-Nicotinamide adenine dinucleotide sodium salt (Sigma, Cat #N0632-5G) made in reaction buffer (50 mM Tris-HCl, pH 7.5, 0.01% Tween 20) at 10-point dose response curve for test/tool compounds. Briefly, 5 μl (4×) of compounds solution and 5 μl (final concentration, 10 nM) of enzyme solution is added to white 384 well plates and incubated for 10 mins at 37° C. 5 μl (4×) of Prostaglandin E2 and 5 μl (4×) of β-Nicotinamide adenine dinucleotide sodium salt is added to the wells and incubated for 10 mins at room temperature. Fluorescence is recorded at ex/em=340 nm/485 nm. The percentage (%) inhibition of enzyme activity was determined relative to positive control (1% DMSO) and IC50 was calculated using GraphPad prism software (four parameter-variable slope equation).
For the compound `NCc1cccc(-n2ccc3cc(C(=O)N4CCCCC4)cnc32)c1` [MF-DH-303], the pIC50 was 6.00 to 7.00.

Consider `NCc1ccc(-n2ccc3cc(C(=O)N4CCCCC4)cnc32)cc1` [MF-DH-304], for which the negative-log IC50 (pIC50) is over 7.00.

As for `CN(C)c1ccc(-n2ccc3cc(C(=O)N4CCCCC4)cnc32)cc1` [MF-DH-305], the pIC50 is over 7.00.

`CCOc1ccc(-n2ccc3cc(C(=O)N4CCCCC4)cnc32)cc1` [MF-DH-306]: the pIC50 was over 7.00.

As for `O=C(c1cnc2c(ccn2-c2ccc(CO)cc2)c1)N1CCCCC1` [MF-DH-307], the pIC50 was over 7.00.

For the compound `O=C(c1cnc2c(ccn2-c2cccc(CO)c2)c1)N1CCCCC1` [MF-DH-308], the negative-log IC50 (pIC50) is over 7.00.

In the case of `CS(=O)(=O)c1cccc(-n2ccc3cc(C(=O)N4CCCCC4)cnc32)c1` [MF-DH-309], the pIC50 was over 7.00.

As to `CS(=O)(=O)c1ccc(-n2ccc3cc(C(=O)N4CCCCC4)cnc32)cc1` [MF-DH-310], the negative logarithm of the IC50 (pIC50) was over 7.00.

Regarding `CS(=O)(=O)n1ccc2cc(C(=O)N3CCCCC3)cnc21` [MF-DH-311, (1-(methylsulfonyl)-1H-pyrrolo[2,3-b]pyridin-5-yl)(piperidin-1-yl)methanone], the pIC50 was at most 6.00.

On to `Cc1ccc(S(=O)(=O)n2ccc3cc(C(=O)N4CCCCC4)cnc32)cc1` [MF-DH-312, piperidin-1-yl(1-tosyl-1H-pyrrolo[2,3-b]pyridin-5-yl)methanone], for which the pIC50 was at most 6.00.

Consider `Nc1cc(-n2ccc3cc(C(=O)N4CCCCC4)cnc32)ccn1` [MF-DH-317], for which the pIC50 is over 7.00.

For `O=C(c1cnc2c(ccn2-c2ccn3ccnc3c2)c1)N1CCCCC1` [MF-DH-318], the pIC50 is over 7.00.

As for `O=C(c1cnc2c(ccn2-c2ccc3[nH]ncc3c2)c1)N1CCCCC1` [MF-DH-319, (1-(1H-indazol-5-yl)-1H-pyrrolo[2,3-b]pyridin-5-yl)(piperidin-1-yl)methanone], the negative logarithm of the IC50 (pIC50) is over 7.00.

`Cc1cncc(-n2ccc3cc(C(=O)N4CCCCC4)cnc32)c1` [MF-DH-320]: the negative-log IC50 (pIC50) was over 7.00.

As for `O=C(c1cnc2c(ccn2-c2ccc(O)nc2)c1)N1CCCCC1` [MF-DH-321], the negative logarithm of the IC50 (pIC50) was over 7.00.

Consider `Nc1cncc(-n2ccc3cc(C(=O)N4CCCCC4)cnc32)c1` [MF-DH-322], for which the pIC50 is over 7.00.

On to `COc1ccc(-n2ccc3cc(C(=O)N4CCCCC4)cnc32)cn1` [MF-DH-323], for which the pIC50 was over 7.00.

As for `COc1ccc(-n2ccc3cc(C(=O)N4CCC(C(F)(F)F)CC4)cnc32)cc1` [MF-DH-324], the negative-log IC50 (pIC50) was 6.00 to 7.00.

Take `COc1ccc(-n2ccc3cc(C(=O)N4CCC(c5ccccc5)CC4)cnc32)cc1` [MF-DH-325]: the negative logarithm of the IC50 (pIC50) is at most 6.00.

In the case of `COc1ccc(-n2ccc3cc(C(=O)N4CC(c5ccccc5)C4)cnc32)cc1` [MF-DH-326], the negative-log IC50 (pIC50) is at most 6.00.

For `COc1ccc(-n2ccc3cc(C(=O)N4CCN(CC(F)(F)F)CC4)cnc32)cc1` [MF-DH-327], the pIC50 is at most 6.00.

For the compound `COc1ccc(-n2ccc3cc(C(=O)N4[C@H](C)CCC[C@@H]4C)cnc32)cc1` [MF-DH-328, ((2R,6S)-2,6-dimethylpiperidin-1-yl)(1-(4-methoxyphenyl)-1H-pyrrolo[2,3-b]pyridin-5-yl)methanone], the negative-log IC50 (pIC50) was 6.00 to 7.00.

Regarding `COc1ccc(-n2ccc3cc(C(=O)N4C[C@H](C)C[C@H](C)C4)cnc32)cc1` [MF-DH-329, ((3R,5S)-3,5-dimethylpiperidin-1-yl)(1-(4-methoxyphenyl)-1H-pyrrolo[2,3-b]pyridin-5-yl)methanone], the pIC50 is over 7.00.

As for `COc1ccc(-n2c(CCC(C)(C)O)cc3cc(C(=O)N4CCCCC4)cnc32)cc1` [MF-DH-330, (2-(3-hydroxy-3-methylbutyl)-1-(4-methoxyphenyl)-1H-pyrrolo[2,3-b]pyridin-5-yl)(piperidin-1-yl)methanone], the negative-log IC50 (pIC50) is over 7.00.

As to `Nc1ccc(-n2ccc3cc(C(=O)N4CCCCC4)cnc32)cn1` [MF-DH-336], the pIC50 was over 7.00.

With `COc1ccc(Cn2cc3cc(-n4ccc5cc(C(=O)N6CCCCC6)cnc54)ccc3n2)cc1` [MF-DH-340], the pIC50 is over 7.00.

Consider `NC(=O)c1ccc(-n2ccc3cc(C(=O)N4CCC(F)CC4)cnc32)cc1` [MF-DH-343], for which the negative-log IC50 (pIC50) is over 7.00.

Consider `N#Cc1cccc(-n2ccc3cc(C(=O)N4CCC(F)CC4)cnc32)c1` [MF-DH-344], for which the pIC50 was over 7.00.

As for `NC(=O)c1cccc(-n2ccc3cc(C(=O)N4CCC(F)CC4)cnc32)c1` [MF-DH-345], the pIC50 is over 7.00.

For `CN(C)c1ccc(-n2ccc3cc(C(=O)N4CCC(F)CC4)cnc32)cc1` [MF-DH-346], the negative-log IC50 (pIC50) is over 7.00.

On to `O=C(c1cnc2c(ccn2-c2ccc(CO)cc2)c1)N1CCC(F)CC1` [MF-DH-347], for which the pIC50 is over 7.00.

Take `O=C(c1cnc2c(ccn2-c2cccc(CO)c2)c1)N1CCC(F)CC1` [MF-DH-348]: the pIC50 is over 7.00.

As for `NC(=O)c1cncc(-n2ccc3cc(C(=O)N4CCC(F)CC4)cnc32)c1` [MF-DH-351], the pIC50 was over 7.00.

As to `NC(=O)c1ccc(-n2ccc3cc(C(=O)N4CCC(F)CC4)cnc32)cn1` [MF-DH-355], the negative logarithm of the IC50 (pIC50) was over 7.00.

For `NC(=O)c1cncc(-n2ccc3cc(C(=O)N4CCCCC4)cnc32)c1` [MF-DH-361], the pIC50 was over 7.00.

On to `CNC(=O)c1cncc(-n2ccc3cc(C(=O)N4CCCCC4)cnc32)c1` [MF-DH-362], for which the pIC50 is over 7.00.

As for `CN(C)C(=O)c1cncc(-n2ccc3cc(C(=O)N4CCCCC4)cnc32)c1` [MF-DH-363], the pIC50 was over 7.00.

`N#Cc1cncc(-n2ccc3cc(C(=O)N4CCCCC4)cnc32)c1` [MF-DH-364]: the pIC50 was over 7.00.

Regarding `CN(C)c1ccc(-n2ccc3cc(C(=O)N4CCCCC4)cnc32)cn1` [MF-DH-366], the pIC50 is over 7.00.

Consider `COCCNC(=O)c1ccc(-n2ccc3cc(C(=O)N4CCCCC4)cnc32)cc1` [MF-DH-367], for which the pIC50 is over 7.00.

Regarding `CNC(=O)c1ccc(-n2ccc3cc(C(=O)N4CCCCC4)cnc32)cc1` [MF-DH-368], the pIC50 was over 7.00.

On to `CN(C)C(=O)c1ccc(-n2ccc3cc(C(=O)N4CCCCC4)cnc32)cc1` [MF-DH-369], for which the pIC50 was over 7.00.

On to `CC(C)(O)c1ccc(-n2ccc3cc(C(=O)N4CCCCC4)cnc32)cc1` [MF-DH-371], for which the pIC50 was over 7.00.

In the case of `CC(C)(O)c1cccc(-n2ccc3cc(C(=O)N4CCCCC4)cnc32)c1` [MF-DH-375], the pIC50 was 6.00 to 7.00.

Regarding `CC(N)c1cccc(-n2ccc3cc(C(=O)N4CCCCC4)cnc32)c1` (stereo not shown) [MF-DH-376, (1-(3-(1-aminoethyl)phenyl)-1H-pyrrolo[2,3-b]pyridin-5-yl)(piperidin-1-yl)methanone], the pIC50 was 6.00 to 7.00.

For `NC(=O)c1ncc(-n2ccc3cc(C(=O)N4CCCCC4)cnc32)cn1` [MF-DH-384], the pIC50 was over 7.00.

Regarding `COc1ccc(-n2ccc3c(NCc4ccccc4)c(C(=O)N4CCCCC4)cnc32)cc1` [MF-DH-385, (4-(benzylamino)-1-(4-methoxyphenyl)-1H-pyrrolo[2,3-b]pyridin-5-yl) (piperidin-1-yl) methanone], the negative-log IC50 (pIC50) is 6.00 to 7.00.

On to `N#Cc1ccc(-n2cc(Cl)c3cc(C(=O)N4CCC(F)CC4)cnc32)cc1` [MF-DH-388], for which the pIC50 was over 7.00.

Consider `N#Cc1ccc(-n2ccc3cc(C(=O)N4CCCCC4)cnc32)cn1` [MF-DH-389], for which the negative-log IC50 (pIC50) is over 7.00.

Consider `Cc1cc(-n2ccc3cc(C(=O)N4CCCCC4)cnc32)cnc1N` [MF-DH-392], for which the negative logarithm of the IC50 (pIC50) is over 7.00.

With `Nc1ncc(-n2ccc3cc(C(=O)N4CCCCC4)cnc32)cc1Cl` [MF-DH-393], the negative logarithm of the IC50 (pIC50) was over 7.00.

Consider `NC(=O)c1ccc(-n2ccc3cc(C(=O)N4CCC(F)(F)CC4)cnc32)cc1` [MF-DH-394], for which the pIC50 is over 7.00.

`N#Cc1ncc(-n2ccc3cc(C(=O)N4CCCCC4)cnc32)cn1` [MF-DH-397]: the negative logarithm of the IC50 (pIC50) was over 7.00.

On to `Cc1nc(-c2cccc(-n3ccc4cc(C(=O)N5CCCCC5)cnc43)c2)no1` [MF-DH-402], for which the pIC50 is over 7.00.

For the compound `N#Cc1ccc(-n2ccc3cc(C(=O)N4C[C@H](F)C[C@H](F)C4)cnc32)cc1` [MF-DH-417, 4-(5-((3R,5S)-3,5-difluoropiperidine-1-carbonyl)-1H-pyrrolo[2,3-b]pyridin-1-yl)benzonitrile], the negative logarithm of the IC50 (pIC50) was 6.00 to 7.00 and > 7.00.

Consider `CCNC(=O)c1ccc(-n2ccc3cc(C(=O)N4CCC(F)(F)CC4)cnc32)cc1` [MF-DH-418], for which the negative-log IC50 (pIC50) is over 7.00.

In the case of `O=C(NC1CCNCC1)c1ccc(-n2ccc3cc(C(=O)N4CCC(F)(F)CC4)cnc32)cc1` [MF-DH-419], the pIC50 was over 7.00.

In the case of `O=C(NC1CNC1)c1ccc(-n2ccc3cc(C(=O)N4CCC(F)(F)CC4)cnc32)cc1` [MF-DH-420], the pIC50 is over 7.00.

Take `O=C(O)c1cncc(-n2ccc3cc(C(=O)N4CCC(F)(F)CC4)cnc32)c1` [MF-DH-425, 5-(5-(4,4-difluoropiperidine-1-carbonyl)-1H-pyrrolo[2,3-b]pyridin-1-yl)nicotinic acid]: the negative logarithm of the IC50 (pIC50) was over 7.00.

Consider `O=C(O)Cc1ccc(-n2ccc3cc(C(=O)N4CCC(F)(F)CC4)cnc32)cc1` [MF-DH-426, 2-(4-(5-(4,4-difluoropiperidine-1-carbonyl)-1H-pyrrolo[2,3-b]pyridin-1-yl)phenyl)acetic acid], for which the pIC50 was over 7.00.

`O=C(c1cnc2c(ccn2-c2ccc(C3(C(=O)O)CC3)cc2)c1)N1CCC(F)(F)CC1` [MF-DH-427, 1-(4-(5-(4,4-difluoropiperidine-1-carbonyl)-1H-pyrrolo[2,3-b]pyridin-1-yl)phenyl)cyclopropane-1-carboxylic acid]: the pIC50 was 6.00 to 7.00.

Values taken from patent US11345702B1 (Myoforte Therapeutics, Inc., priority 2020, dated 2022).
